Like-named read-outs stand apart in the source and are kept apart here.
Legend:
AChE [1] = target: T1, AChE (Homo sapiens, UniProt P22303); test: biochemical; conditions: for inhibition at 2 µM: concentration 2 μM; for inhibition at 10 µM: concentration 10 μM; for inhibition at 50 µM: concentration 50 μM
AChE [2] = target: T1, AChE; conditions: previous in vitro and in vivo reports; cited from earlier work
[3] = previous studies; cited from earlier work
[4] = Ellman method, pH 8.0, triplicate, read-out: IC50 (AChE-inhibitory activity)
[5] = read-out: Inhibition (%) of AChE

T1 sequence (P22303 32-614): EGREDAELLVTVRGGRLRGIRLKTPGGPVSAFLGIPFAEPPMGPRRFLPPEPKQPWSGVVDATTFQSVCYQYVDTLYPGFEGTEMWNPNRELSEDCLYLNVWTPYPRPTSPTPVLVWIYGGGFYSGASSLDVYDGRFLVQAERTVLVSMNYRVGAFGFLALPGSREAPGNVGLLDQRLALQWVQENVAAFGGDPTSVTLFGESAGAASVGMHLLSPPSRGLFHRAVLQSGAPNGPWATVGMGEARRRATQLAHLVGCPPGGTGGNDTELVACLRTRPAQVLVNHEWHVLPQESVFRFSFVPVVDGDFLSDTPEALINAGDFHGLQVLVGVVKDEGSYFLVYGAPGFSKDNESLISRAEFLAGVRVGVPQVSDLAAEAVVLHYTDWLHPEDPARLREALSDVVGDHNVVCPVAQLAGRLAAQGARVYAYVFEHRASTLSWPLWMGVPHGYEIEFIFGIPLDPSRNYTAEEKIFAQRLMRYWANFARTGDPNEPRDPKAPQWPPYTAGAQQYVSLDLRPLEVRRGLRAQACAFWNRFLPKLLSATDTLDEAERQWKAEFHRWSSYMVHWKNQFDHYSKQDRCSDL

COc1cc(C=O)ccc1O [Compound 3, vanillin]
IC50 (AChE [1]): 39.3 µM
inhibition at 2 µM (AChE [1]): -1.88%
inhibition at 10 µM (AChE [1]): 6.07%
AChE-inhibitory activities (AChE [2]): has AChE-inhibitory activities

O=CC1=CC[C@@H](O)[C@H]2CCC[C@@H]12 (relative stereo) [Compound 2, rel-(1R,5R,6S)-5-hydroxybicyclo[4,3,0]non-2-ene-2-carboxaldehyde]
Antifungal activity [3]: weak antifungal activity
IC50 (AChE [1]; [4]): 41.7 µM
inhibition at 2 µM (AChE [1]): -6.07%
inhibition at 10 µM (AChE [1]): 7.74%
inhibition at 50 µM (AChE [1]): 62.1%

COc1ccc2cc3[n+](cc2c1OC)CCc1cc2c(cc1-3)OCO2 [berberine, reference compound]
inhibition at 0.04 µM (AChE [1]; [5]): 20.7%
inhibition at 0.2 µM (AChE [1]; [5]): 73.4%
inhibition at 1 µM (AChE [1]; [5]): 95.8%

COc1cc(/C=C/C=C/C(=O)CCc2ccc(O)cc2)ccc1O [Compound 4, tsaokoarylone]
IC50 (AChE [1]; [4]): 31.1 µM
inhibition at 2 µM (AChE [1]): -11.9%
inhibition at 10 µM (AChE [1]): 30.8%
inhibition at 50 µM (AChE [1]): 78.7%

O=C(O)C1=CC[C@@H](O)[C@H]2CCC[C@@H]12 (relative stereo) [Compound 1, rel-(1R,5R,6S)-5-hydroxybicyclo[4.3.0]non-2-ene-2-carboxylic acid]
IC50 (AChE [1]; [4]): 32.8 µM
inhibition at 2 µM (AChE [1]): 2.09%
inhibition at 10 µM (AChE [1]): 29.5%
inhibition at 50 µM (AChE [1]): 70.9%

From paper PMC10059965, “Tsaokoic Acid: A New Bicyclic Nonene from the Fruits of Amomum tsao-ko with Acetylcholinesterase Inhibitory Activity” (Molecules, 2023)
